Results taken from US7282599B2, “Dithiocarbamate antiviral agents and methods of using same” (Avir Green Hills Biotechnology Research Devlopment Trade AG, priority 2001, dated 2007).

Key:
[1] = test system: FMV virus O-Manisa; type: cell-based, foot and mouth disease virus; details: IB-RS-2 cells, 0.001 TCID50 per cell, PDTC up to 200 μM, 24 hours after infection
[2] = test system: FSME virus (Neudörfel); experiment: FSME virus proliferation in suspended cells; type: cell-based; details: same concentrations, 0.975 to 1000 μM
Method: Similarly, we investigated whether PDTC can affect virus proliferation in suspended cells. The same concentrations as above were tested.

[3] = test system: HRV2; experiment: Time of addition, viral titers in supernatants of HRV2-infected cells; type: cell-based, human rhinovirus
Method: Similar results were obtained if the viral titers (vt) were determined in the supernatants of infected and PDTC-treated cells (see FIG. 4B). Addition of PDTC up to four hours after infection reduced the titer of the HRV2 produced by 10^3.

[4] = test system: A/Vienna/47/96; experiment: microbe, parasite or virus in culture; type: cell-based, influenza A virus; details: 4 days
[5] = test system: HRV2, HRV14, HRV1A and HRV16; experiment: HRV-induced cytopathic effects (morphology) in HeLa cells; type: cell-based, human rhinovirus
Method: Morphological changes in the cells, called “cytopathic effects” (CPE) occur in the late stages of a rhinoviral infection. These HRV induced CPE are characterized as cell rounding, shrinkage, deformation of the nucleus and chromatin condensation. When HeLa cells are infected with HRV2, HRV14, HRV1A and HRV16 at 100 TCID50 per cell, a distinct cytopathic effect is visible after 8 hours post-infection.

[6] = test system: FMV virus O-Manisa; experiment: microbe, parasite or virus in culture; type: cell-based, foot and mouth disease virus
[7] = test system: HeLa cells; experiment: Cell proliferation assay on uninfected HeLa cells (toxicity control)
[8] = test system: influenza virus; details: Knobil et al., Am. J. Physiol. 1998; cited from earlier work
[9] = test system: equine rhinitis A virus (ERAV); type: cell-based; details: vero cells, 10 TCID50 ERAV per cell, PDTC 1 mM-50 μM, 24 hours after infection
Method: The reduction of ERAV viral propagation by addition of PDTC was investigated as follows: vero cells were infected with 10 TCID50 ERAV per cell. At the same time, PDTC was added at different concentrations (1 mM-50 μM). The inoculum was removed 4 hours after infection, and fresh medium with PDTC was added. The supernatants were removed 24 hours after the infection, and the viral titers were determined in a standard plate assay.

S=C(S)N1CCCC1 [PDTC, pyrrolidine dithiocarbamate]
reduction of virus titer compared with the control sample [1]: more than 2 log steps | reduction of virus proliferation in suspended cells [2]: no indication of reduction of virus proliferation | viral titers produced ([3]; PDTC treatment started only 6 hours after infection): significantly reduced | reduction of the titer of the HRV2 produced ([3]; addition of PDTC up to four hours after infection): 10^3 | inhibition at 1200 µM ([4]; Influenza A virus, 96 h, PDTC 1200 μM, read-out: inhibition (TCID50 assay)): > 99.9% | reduction of TCID50 ([4]; PDTC 300 μM): 82.2% | morphology of infected cells ([5]; 125 μM PDTC, 8 hours after the infection): cannot be distinguished from the morphology of non-infected (n. i.) cells | appearance of cytopathic effects ([5]; HeLa cells, 100 TCID50 per cell, PDTC added during the infection): prevents the appearance of these cytopathic effects | protection against the cytopathic effect of the virus ([6]; 600 μM PDTC, IB-RS-2 cells, 0.1 TCID50 per cell, 24 hours): 100% | EC50 ([6]; Foot-and-mouth disease virus, 24 h, read-out: concentration range for 50% reduction of infected wells): 75 to 150 µM | toxicity of the concentration used to inhibit the viral infections ([7]; HeLa cells): exhibits no toxicity | effects on uninfected cells (viability) ([7]; compound alone, uninfected HeLa cells): only minor effects on uninfected cells | inhibition of influenza virus infection or replication [8]: neither NAC nor PDTC inhibits influenza virus infection or replication | virus titer (vt) in the supernatant in comparison to untreated cells [9]: decreases
